These results are taken from patent EP2766361B1, “8-CARBAMOYL-2-(2,3-DISUBSTITUTED PYRID-6-YL)-1,2,3,4-TETRAHYDROISOQUINOLINE DERIVATIVES AS APOPTOSIS-INDUCING AGENTS FOR THE TREATMENT OF CANCER AND IMMUNE AND AUTOIMMUNE DISEASES” (priority 2011, dated 2013).

The term EC50 denotes the concentration at which the effect is half-maximal.

The subject of the experiment is mouse FL5.12 cells transfected with Bcl-xL. Briefly: FL5.12 cellular assay (cell viability, CellTiter-Glo). The format is cell-based. The conditions noted are these: IL-3-depleted, 3% FBS assay media, 24 hours, read-out: FL5.12 Bcl-xL, -IL3, EC50. On the procedure: Cell viability was assayed using the CellTiter-Glo assay (Promega Corp., Madison, WI) according to the manufacturer instructions. Individual determinations were the result of duplicate values. […] Table 2. In Vitro Data
In general terms: In ATP-based viability assays light output follows the ATP content of the culture.
With `Cc1nn(CC23CC4CC(CC(C4)C2)C3)c(C)c1-c1ccc(N2CCc3cccc(C(=O)Nc4nc5ccccc5s4)c3C2)nc1C(=O)O` [Example 2, 6-[8-(1,3-benzothiazol-2-ylcarbamoyl)-3,4-dihydroisoquinolin-2(1H)-yl]-3-[3,5-dimethyl-1-(tricyclo[3.3.1.1^3,7]dec-1-ylmethyl)-1H-pyrazol-4-yl]pyridine-2-carboxylic acid], the EC50 is under 1 nM. Consider `O=C(Nc1nc2ccccc2s1)c1cccc2c1CN(c1ccc(-c3cnn(CC4CCC5(CCC5)CC4)c3)c(C(=O)O)n1)CC2` [Example 4, 6-[8-(1,3-benzothiazol-2-ylcarbamoyl)-3,4-dihydroisoquinolin-2(1H)-yl]-3-[1-(spiro[3.5]non-7-ylmethyl)-1H-pyrazol-4-yl]pyridine-2-carboxylic acid], for which the EC50 came out at 918 nM. As for `CC12CC3CC(C)(C1)CC(Cn1cc(-c4ccc(N5CCc6cccc(C(=O)Nc7nc8ccccc8s7)c6C5)nc4C(=O)O)cn1)(C3)C2` [Example 5, 6-[8-(1,3-benzothiazol-2-ylcarbamoyl)-3,4-dihydroisoquinolin-2(1H)-yl]-3-(1-{[3,5-dimethyltricyclo[3.3.1.1^3,7]dec-1-yl]methyl}-1H-pyrazol-4-yl)pyridine-2-carboxylic acid], the EC50 worked out at 2 nM. In the case of `O=C(Nc1nc2ccccc2s1)c1cccc2c1CN(c1ccc(-c3cnn(CC45CC6CC(CC(O)(C6)C4)C5)c3)c(C(=O)O)n1)CC2` [Example 6, 6-[8-(1,3-benzothiazol-2-ylcarbamoyl)-3,4-dihydroisoquinolin-2(1H)-yl]-3-(1-{[3-hydroxytricyclo[3.3.1.1^3,7]dec-1-yl]methyl}-1H-pyrazol-4-yl)pyridine-2-carboxylic acid], the concentration giving a half-maximal response (EC50) amounted to 146 nM. On to `COC12CC3CC(CC(Cn4cc(-c5ccc(N6CCc7cccc(C(=O)Nc8nc9ccccc9s8)c7C6)nc5C(=O)O)cn4)(C3)C1)C2` [Example 7, 6-[8-(1,3-benzothiazol-2-ylcarbamoyl)-3,4-dihydroisoquinolin-2(1H)-yl]-3-(1-{[3-methoxytricyclo[3.3.1.1^3,7]dec-1-yl]methyl}-1H-pyrazol-4-yl)pyridine-2-carboxylic acid], for which the 50% effective concentration (EC50) was found to be 37 nM. With `COCCOC12CC3CC(CC(Cn4cc(-c5ccc(N6CCc7cccc(C(=O)Nc8nc9ccccc9s8)c7C6)nc5C(=O)O)cn4)(C3)C1)C2` [Example 8, 6-[8-(1,3-benzothiazol-2-ylcarbamoyl)-3,4-dihydroisoquinolin-2(1H)-yl]-3-(1-{[3-(2-methoxyethoxy)tricyclo[3.3.1.1^3,7]dec-1-yl]methyl}-1H-pyrazol-4-yl)pyridine-2-carboxylic acid] the figure was 147 nM; with `CC12CC3(C)CC(C)(C1)CC(Cn1cc(-c4ccc(N5CCc6cccc(C(=O)Nc7nc8ccccc8s7)c6C5)nc4C(=O)O)cn1)(C2)C3` [Example 9, 6-[8-(1,3-benzothiazol-2-ylcarbamoyl)-3,4-dihydroisoquinolin-2(1H)-yl]-3-{1-[(3,5,7-trimethyltricyclo[3.3.1.1^3,7]dec-1-yl)methyl]-1H-pyrazol-4-yl}pyridine-2-carboxylic acid], 3 nM; with `O=C(Nc1nc2ccccc2s1)c1cccc2c1CN(c1ccc(-c3cnn(CC45CC6CC(CC(Br)(C6)C4)C5)c3)c(C(=O)O)n1)CC2` [Example 11, 6-[8-(1,3-benzothiazol-2-ylcarbamoyl)-3,4-dihydroisoquinolin-2(1H)-yl]-3-(1-{[3-bromotricyclo[3.3.1.1^3,7]dec-1-yl]methyl}-1H-pyrazol-4-yl)pyridine-2-carboxylic acid], 11 nM. On to `CC(C)OC12CC3CC(CC(Cn4cc(-c5ccc(N6CCc7cccc(C(=O)Nc8nc9ccccc9s8)c7C6)nc5C(=O)O)cn4)(C3)C1)C2` [Example 12, 6-[8-(1,3-benzothiazol-2-ylcarbamoyl)-3,4-dihydroisoquinolin-2(1H)-yl]-3-(1-{[3-(propan-2-yloxy)tricyclo[3.3.1.1^3,7]dec-1-yl]methyl}-1H-pyrazol-4-yl)pyridine-2-carboxylic acid], for which the EC50 was 24 nM. With `Cc1c(-c2ccc(N3Cc4c(C(=O)Nc5nc6ccccc6s5)cccc4C(C)(C)C3)nc2C(=O)O)cnn1CC12CC3CC(CC(C3)C1)C2` [Example 14, 6-[8-(1,3-benzothiazol-2-ylcarbamoyl)-4,4-dimethyl-3,4-dihydroisoquinolin-2(1H)-yl]-3-[5-methyl-1-(tricyclo[3.3.1.1^3,^7]dec-1-ylmethyl)-1H-pyrazol-4-yl]pyridine-2-carboxylic acid], the EC50 was under 1 nM.

Consider `O=C(Nc1nc2ccccc2s1)c1cccc2c1CN(c1ccc(-c3cnn(CC45CC6CC(C4)CC(N4CCOCC4)(C6)C5)c3)c(C(=O)O)n1)CC2` [Example 15, 6-[8-(1,3-benzothiazol-2-ylcarbamoyl)-3,4-dihydroisoquinolin-2(1H)-yl]-3-(1-{[3-(morpholin-4-yl)tricyclo[3.3.1.1^3,7]dec-1-yl]methyl}-1H-pyrazol-4-yl)pyridine-2-carboxylic acid], for which the EC50 amounted to 110 nM. On to `Cc1c(-c2ccc(N3CCc4cccc(C(=O)Nc5nc6ccccc6s5)c4C3)nc2C(=O)NS(C)(=O)=O)cnn1CC12CC3CC(CC(C3)C1)C2` [Example 17, N-(1,3-benzothiazol-2-yl)-2-{6-[(methylsulfonyl)carbamoyl]-5-[5-methyl-1-(tricyclo[3.3.1.1^3,7]dec-1-ylmethyl)-1H-pyrazol-4-yl]pyridin-2-yl}-1,2,3,4-tetrahydroisoquinoline-8-carboxamide], for which the EC50 was determined as 1 nM.

With `Cc1c(-c2ccc(N3CCc4cccc(C(=O)Nc5nc6ccccc6s5)c4C3)nc2-c2nn[nH]n2)cnn1CC12CC3CC(CC(C3)C1)C2` [Example 19, N-(1,3-benzothiazol-2-yl)-2-{5-[5-methyl-1-(tricyclo[3.3.1.1^3,7]dec-1-ylmethyl)-1H-pyrazol-4-yl]-6-(2H-tetrazol-5-yl)pyridin-2-yl}-1,2,3,4-tetrahydroisoquinoline-8-carboxamide], the EC50 amounted to 3 nM.

As for `Cc1cc(OCC23CC4CC(CC(C4)C2)C3)ccc1-c1ccc(N2CCc3cccc(C(=O)Nc4nc5ccccc5s4)c3C2)nc1C(=O)O` [Example 20, 6-[8-(1,3-benzothiazol-2-ylcarbamoyl)-3,4-dihydroisoquinolin-2(1H)-yl]-3-{2-methyl-4-[tricyclo[3.3.1.1^3,7]dec-1-ylmethoxy]phenyl}pyridine-2-carboxylic acid], the EC50 is over 1000 nM. For the compound `Cc1c(OCC23CC4CC(CC(C4)C2)C3)cccc1-c1ccc(N2CCc3cccc(C(=O)Nc4nc5ccccc5s4)c3C2)nc1C(=O)O` [Example 21, 6-[8-(1,3-benzothiazol-2-ylcarbamoyl)-3,4-dihydroisoquinolin-2(1H)-yl]-3-{2-methyl-3-[tricyclo[3.3.1.1^3,7]dec-1-ylmethoxy]phenyl}pyridine-2-carboxylic acid], the EC50 was 343 nM. For `O=C(Nc1nc2ccccc2s1)c1cccc2c1CN(c1ccc(-c3cccc(OCC45CC6CC(CC(C6)C4)C5)c3)c(C(=O)O)n1)CC2` [Example 22, 6-[8-(1,3-benzothiazol-2-ylcarbamoyl)-3,4-dihydroisoquinolin-2(1H)-yl]-3-{3-[tricyclo[3.3.1.1^3,7]dec-1-ylmethoxy]phenyl}pyridine-2-carboxylic acid], the EC50 is over 1000 nM. Regarding `O=C(Nc1nc2ccccc2s1)c1cccc2c1CN(c1ccc(-c3ccnc(OCC45CC6CC(CC(C6)C4)C5)c3)c(C(=O)O)n1)CC2` [Example 25, 6-[8-(1,3-benzothiazol-2-ylcarbamoyl)-3,4-dihydroisoquinolin-2(1H)-yl]-2'-(tricyclo[3.3.1.1^3,7]dec-1-ylmethoxy)-3,4'-bipyridine-2-carboxylic acid], the EC50 was over 1000 nM. With `O=C(Nc1nc2ccccc2s1)c1cccc2c1CN(c1ccc(-c3cnn(CC45CC6CC(C4)CC(OCCN4CCOCC4)(C6)C5)c3)c(C(=O)O)n1)CC2` [Example 26, 6-[8-(1,3-benzothiazol-2-ylcarbamoyl)-3,4-dihydroisoquinolin-2(1H)-yl]-3-[1-({3-[2-(morpholin-4-yl)ethoxy]tricyclo[3.3.1.1^3,7]dec-1-yl}methyl)-1H-pyrazol-4-yl]pyridine-2-carboxylic acid], the EC50 was 243 nM. Consider `Cc1c(-c2ccc(N3CCc4cccc(C(=O)Nc5nc6ccccc6s5)c4C3)nc2C(=O)O)ccnc1OCC12CC3CC(CC(C3)C1)C2` [Example 27, 6-[8-(1,3-benzothiazol-2-ylcarbamoyl)-3,4-dihydroisoquinolin-2(1H)-yl]-3'-methyl-2'-(tricyclo[3.3.1.1^3,7]dec-1-ylmethoxy)-3,4'-bipyridine-2-carboxylic acid], for which the 50% effective concentration (EC50) is 214 nM.

Regarding `N#Cc1c(-c2ccc(N3CCc4cccc(C(=O)Nc5nc6ccccc6s5)c4C3)nc2C(=O)O)cnn1CC12CC3CC(CC(C3)C1)C2` [Example 29, 6-[8-(1,3-benzothiazol-2-ylcarbamoyl)-3,4-dihydroisoquinolin-2(1H)-yl]-3-{5-cyano-1-[tricyclo[3.3.1.1^3,7]dec-1-ylmethyl]-1H-pyrazol-4-yl}pyridine-2-carboxylic acid], the EC50 worked out at 3 nM.

Consider `Cc1c(-c2ccc(N3CCc4cccc(C(=O)Nc5nc6ncccc6s5)c4C3)nc2C(=O)O)cnn1CC12CC3CC(CC(C3)C1)C2` [Example 30, 3-[5-methyl-1-(tricyclo[3.3.1.1^3,7]dec-1-ylmethyl)-1H-pyrazol-4-yl]-6-[8-([1,3]thiazolo[4,5-b]pyridin-2-ylcarbamoyl)-3,4-dihydroisoquinolin-2(1H)-yl]pyridine-2-carboxylic acid], for which the EC50 was 49 nM.

For the compound `Cc1c(-c2ccc(N3CCc4cccc(C(=O)Nc5nc6cnccc6s5)c4C3)nc2C(=O)O)cnn1CC12CC3CC(CC(C3)C1)C2` [Example 31, 3-[5-methyl-1-(tricyclo[3.3.1.1^3,7]dec-1-ylmethyl)-1H-pyrazol-4-yl]-6-[8-([1,3]thiazolo[4,5-c]pyridin-2-ylcarbamoyl)-3,4-dihydroisoquinolin-2(1H)-yl]pyridine-2-carboxylic acid], the 50% effective concentration (EC50) worked out at 5 nM.
